Patent US20130302389A1, “COSMETIC COMPOSITION CONTAINING AT LEAST TWO OSMOLYTES WITH A MOISTURIZING OR ANTIAGING EFFECT” (LVMH Recherche, priority 2008, published 2013)

Tested on: HSPA1A
Test: Stimulation of HSPA1A mRNA expression in normal human epidermal keratinocytes (RT-QPCR)
Format: cell-based
Settings: 24 hours, mRNA by RT-QPCR relative to G3PDH, control (untreated cells) normalized to 100% expression
Description: Cell type: normal human keratinocytes (NHK) as an immersed monolayer, strongly post-confluent and at the third subculture.
Culture medium: low-calcium K-SFM (Invitrogen) supplemented with Epidermal Growth Factor (EGF Sigma) at 2.5 ng/ml, pituitary extract (EP Invitrogen) 2.5 μg/ml and gentamicin (Sigma) 25 μg/ml. For the treatments with the various compounds, this medium is replaced with K-SFM medium not supplemented with EGF and EP.
Treatment time: 24 hours with the various kosmotropes, and other molecules or extracts, and combinations thereof.
Test compounds: the taurine, D-trehalose, inositol and betaine (Sigma) are dissolved in the culture medium and tested at concentrations of 166 and 500 μg/ml, or, when this was not possible for reasons of solubility or cytotoxicity, at substantially lower concentrations.
The combination of these four compounds in proportions of 1/1/1/1 by weight is tested at the same concentrations.
Assays of the mRNA of HMSPA1A by RT-QPCR: at the end of the incubation period, the culture supernatants are removed and the cells, rinsed with PBS (Invitrogen), are covered with a solution of Tri-reagent (Sigma) and then frozen immediately at −80° C.
Extraction of the total RNA is performed according to the protocol of the Tri-reagent supplier (Sigma) and removal of the traces of DNA is performed with the DNA-free kit (Ambion). The reverse transcription reaction is performed using Oligo(dT) primers and the enzyme superscript II (Gibco).
The PCR (Polymerase Chain Reaction) reactions are performed using a Light Cycler (Roche Molecular Systems, Inc.) and according to the procedures recommended by the supplier. The pairs of primers used in this study allow amplification of the following fragments:
Homo sapiens heat shock protein HSP70 protein 1A (abbreviation HSPA1A; Gene bank NM 02045; fragment size 213 bp) and liver glyceraldehyde 3-phosphate dehydrogenase 1A (abbreviation G3PDH; Gene bank NM 02046; fragment size 269 bp) serving as the reference gene (caretaker gene) for determining the relative expression of the target HSPA1A.
The reaction medium (10 μl) is formed from the primers for the two target mRNAs (HSPA1A and G3PDH), 2.5 μl of tenfold-diluted cDNA, reaction mixture (Roche) containing the enzyme Taq DNA polymerase, SYBR Green I fluorochrome (which becomes incorporated into the double-stranded DNA during the elongation step), and MgCl2.
The incorporation of fluorescence into the amplified DNA is measured continuously in the course of the PCR cycles. For the same used marker, the later a sample leaves (high number of cycles), the lower the initial number of copies of mRNA.
Normal human keratinocyte cultures are treated for 24 hours with noncytotoxic doses (166 and 500 μg/ml) of each of the four osmolytes separately: taurine, D-trehalose, inositol and betaine. The transcriptional expression of HMSPA1A is measured by RT-PCR.
The control (untreated cells) is normalized to correspond to 100% expression.

OC[C@H]1O[C@H](O[C@H]2O[C@H](CO)[C@@H](O)[C@H](O)[C@H]2O)[C@H](O)[C@@H](O)[C@@H]1O [D-trehalose]
stimulation of expression of HSPA1A (166 μg/ml): 142%
stimulation of expression of HSPA1A (500 μg/ml): 181%

NCCS(=O)O [Hypotaurine, hypotaurine]
stimulation of expression of HSPA1A (166 μg/ml): 379%

C[N+](C)(C)CC(=O)O [betaine]
stimulation of expression of HSPA1A (166 μg/ml): 52%
stimulation of expression of HSPA1A (500 μg/ml): 85%

O[C@H]1[C@H](O)[C@@H](O)[C@H](O)[C@@H](O)[C@H]1O [inositol]
stimulation of expression of HSPA1A (166 μg/ml): 90%
stimulation of expression of HSPA1A (500 μg/ml): 101%

NCCS(=O)(=O)O [taurine]
stimulation of expression of HSPA1A (166 μg/ml): 171%
stimulation of expression of HSPA1A (500 μg/ml): 139%
